Reference: ChEMBL document CHEMBL4190343, “Novel deoxyvasicinone derivatives as potent multitarget-directed ligands for the treatment of Alzheimer's disease: Design, synthesis, and biological evaluation” (Eur J Med Chem, 2017)
The source made the active and inactive calls. The calls are words filed in the database; no cut-off is given here.

B1: Acetylcholinesterase (Homo sapiens), P22303 (protein)
chain: MRPPQCLLHTPSLASPLLLLLLWLLGGGVGAEGREDAELLVTVRGGRLRGIRLKTPGGPVSAFLGIPFAEPPMGPRRFLPPEPKQPWSGVVDATTFQSVCYQYVDTLYPGFEGTEMWNPNRELSEDCLYLNVWTPYPRPTSPTPVLVWIYGGGFYSGASSLDVYDGRFLVQAERTVLVSMNYRVGAFGFLALPGSREAPGNVGLLDQRLALQWVQENVAAFGGDPTSVTLFGESAGAASVGMHLLSPPSRGLFHRAVLQSGAPNGPWATVGMGEARRRATQLAHLVGCPPGGTGGNDTELVACLRTRPAQVLVNHEWHVLPQESVFRFSFVPVVDGDFLSDTPEALINAGDFHGLQVLVGVVKDEGSYFLVYGAPGFSKDNESLISRAEFLAGVRVGVPQVSDLAAEAVVLHYTDWLHPEDPARLREALSDVVGDHNVVCPVAQLAGRLAAQGARVYAYVFEHRASTLSWPLWMGVPHGYEIEFIFGIPLDPSRNYTAEEKIFAQRLMRYWANFARTGDPNEPRDPKAPQWPPYTAGAQQYVSLDLRPLEVRRGLRAQACAFWNRFLPKLLSATDTLDEAERQWKAEFHRWSSYMVHWKNQFDHYSKQDRCSDL

Key:
[1] = target: Cholinesterase (Homo sapiens, UniProt P06276)
Description: Inhibition of human BChE pre-incubated for 6 mins before ATCI substrate addition and measured after 12 mins by DTNB reagent dependent UV-Vis spectrophotometry based Ellman's method

[2] = target: T1, Acetylcholinesterase (Homo sapiens, UniProt P22303)
Description: Inhibition of human AChE pre-incubated for 6 mins before ATCI substrate addition and measured after 12 mins by DTNB reagent dependent UV-Vis spectrophotometry based Ellman's method

[3] = Metal chelating activity against Fe3+ ions assessed as reduction in intrinsic fluorescence of compound at 50 uM incubated for 30 mins using FeCl3 by fluorescence spectrophotometry
[4] = Metal chelating activity against Zn2+ ions assessed as compound-Zn2+ complex formation at 50 uM incubated for 30 mins using ZnCl2 by UV-Visible spectrophotometry
[5] = Metal chelating activity against Cu2+ ions assessed as reduction in intrinsic fluorescence of compound at 50 uM incubated for 30 mins using CuSO4 by fluorescence spectrophotometry
[6] = target: T1, Acetylcholinesterase; assay: Inhibition of human AChE assessed as inhibitor dissociation constant for enzyme-inhibitor complex pre-incubated for 6 mins before ATCI substrate addition and measured after 12 mins by DTNB reagent dependent Ellman's method based Lineweaver-Burk plot analysis
[7] = Metal chelating activity against Fe2+ ions assessed as compound-Fe2+ complex formation at 50 uM incubated for 30 mins using FeSO4 by UV-Visible spectrophotometry
[8] = Metal chelating activity against Fe3+ ions assessed as compound-Fe3+ complex formation at 50 uM incubated for 30 mins using FeCl3 by UV-Visible spectrophotometry
[9] = Metal chelating activity against Cu2+ ions assessed as compound-Cu2+ complex formation at 50 uM incubated for 30 mins using CuSO4 by UV-Visible spectrophotometry
[10] = target: T1, Acetylcholinesterase; assay: Inhibition of human AChE assessed as inhibitor dissociation constant for enzyme-substrate-inhibitor complex pre-incubated for 6 mins before ATCI substrate addition and measured after 12 mins by DTNB reagent dependent Ellman's method based Lineweaver-Burk plot analysis
[11] = Metal chelating activity against Zn2+ ions assessed as reduction in intrinsic fluorescence of compound at 50 uM incubated for 30 mins using ZnCl2 by fluorescence spectrophotometry
[12] = Metal chelating activity against Cu2+ ions assessed as 1:1 stoichiometry compound-Cu2+ complex formation at 50 uM incubated for 30 mins using CuSO4 by UV-Visible spectrophotometry
[13] = Metal chelating activity against Fe2+ ions assessed as reduction in intrinsic fluorescence of compound at 50 uM incubated for 30 mins using FeSO4 by fluorescence spectrophotometry
[14] = compound: O=C(CNCc1cc(F)cc(F)c1)Nc1ccc2nc3n(c(=O)c2c1)CCC3; assay: Inhibition of human AChE assessed as ATCI substrate Km at 5 nM pre-incubated for 6 mins before ATCI substrate addition and measured after 12 mins by DTNB reagent dependent Ellman's method based Michaelis-Menten kinetics analysis (reference value: […] mM)
[15] = compound: O=C(CNCc1cc(F)cc(F)c1)Nc1ccc2nc3n(c(=O)c2c1)CCC3; assay: Inhibition of human AChE assessed as ATCI substrate Vmax at 5 nM pre-incubated for 6 mins before ATCI substrate addition and measured after 12 mins by DTNB reagent dependent Ellman's method based Michaelis-Menten kinetics analysis (reference value: […] deltaA/min)
[16] = compound: O=C(CNCc1cc(F)cc(F)c1)Nc1ccc2nc3n(c(=O)c2c1)CCC3; assay: Inhibition of human AChE assessed as ATCI substrate Km at 10 nM pre-incubated for 6 mins before ATCI substrate addition and measured after 12 mins by DTNB reagent dependent Ellman's method based Michaelis-Menten kinetics analysis (reference value: […] mM)
[17] = compound: O=C(CNCc1cc(F)cc(F)c1)Nc1ccc2nc3n(c(=O)c2c1)CCC3; assay: Inhibition of human AChE assessed as ATCI substrate Vmax at 10 nM pre-incubated for 6 mins before ATCI substrate addition and measured after 12 mins by DTNB reagent dependent Ellman's method based Michaelis-Menten kinetics analysis (reference value: […] deltaA/min)
[18] = compound: O=C(CNCc1cc(F)cc(F)c1)Nc1ccc2nc3n(c(=O)c2c1)CCC3; assay: Inhibition of human AChE assessed as ATCI substrate Vmax at 1 nM pre-incubated for 6 mins before ATCI substrate addition and measured after 12 mins by DTNB reagent dependent Ellman's method based Michaelis-Menten kinetics analysis (reference value: […] deltaA/min)
[19] = compound: O=C(CNCc1cc(F)cc(F)c1)Nc1ccc2nc3n(c(=O)c2c1)CCC3; assay: Inhibition of human AChE assessed as ATCI substrate Km at 1 nM pre-incubated for 6 mins before ATCI substrate addition and measured after 12 mins by DTNB reagent dependent Ellman's method based Michaelis-Menten kinetics analysis (reference value: […] mM)

Sequence of Cholinesterase (P06276 whole entry): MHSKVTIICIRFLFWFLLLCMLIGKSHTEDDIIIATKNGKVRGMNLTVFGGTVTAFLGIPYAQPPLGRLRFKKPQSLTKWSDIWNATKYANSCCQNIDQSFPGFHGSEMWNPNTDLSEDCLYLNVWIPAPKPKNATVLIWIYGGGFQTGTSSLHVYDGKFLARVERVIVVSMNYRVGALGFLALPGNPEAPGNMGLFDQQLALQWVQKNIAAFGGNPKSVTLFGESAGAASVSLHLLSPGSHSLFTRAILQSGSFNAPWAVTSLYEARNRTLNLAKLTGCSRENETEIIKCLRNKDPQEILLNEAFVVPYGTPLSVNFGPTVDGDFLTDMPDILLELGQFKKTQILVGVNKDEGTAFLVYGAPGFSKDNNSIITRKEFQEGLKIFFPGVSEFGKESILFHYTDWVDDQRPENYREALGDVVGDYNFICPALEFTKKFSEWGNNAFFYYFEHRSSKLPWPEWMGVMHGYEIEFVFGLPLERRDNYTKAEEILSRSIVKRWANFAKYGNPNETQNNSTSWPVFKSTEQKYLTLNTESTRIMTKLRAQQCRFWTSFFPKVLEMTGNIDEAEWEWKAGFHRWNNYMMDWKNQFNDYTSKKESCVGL

| Molecule | IC50 [1] | IC50 [2] | also measured |
| --- | --- | --- | --- |
| O=C(CNCc1ccccc1)Nc1ccc2nc3n(c(=O)c2c1)CCC3 | 145 nM | 231 nM |  |
| O=C(CNCc1ccccc1[N+](=O)[O-])Nc1ccc2nc3n(c(=O)c2c1)CCC3 | 103 nM | 30.7 nM |  |
| O=c1c2ccccc2nc2n1CCC2 [DEOXYVASICINONE] | 45100 nM | 62500 nM |  |
| CCCCCCNCC(=O)Nc1ccc2nc3n(c(=O)c2c1)CCC3 | 10.5 nM | 25.3 nM |  |
| CC(C)=CCNCC(=O)Nc1ccc2nc3n(c(=O)c2c1)CCC3 | 16.3 nM | 25.9 nM |  |
| CCCCNCC(=O)Nc1ccc2nc3n(c(=O)c2c1)CCC3 | 107 nM | 21.2 nM |  |
| CCCCCCCCCCNCC(=O)Nc1ccc2nc3n(c(=O)c2c1)CCC3 | 37.2 nM | 24.1 nM |  |
| CCCNCC(=O)Nc1ccc2nc3n(c(=O)c2c1)CCC3 | 1190 nM | 310 nM |  |
| CCNCC(=O)Nc1ccc2nc3n(c(=O)c2c1)CCC3 | 1000 nM | 557 nM |  |
| O=C(CNCc1cc(F)cc(F)c1)Nc1ccc2nc3n(c(=O)c2c1)CCC3 | 2.35 nM | 7.61 nM | Activity [3]: Active; Activity [4]: inactive; Activity [5]: Active; Ki [6]: 9.85 nM; Activity [7]: Active; Activity [8]: Active; Activity [9]: Active; Ki [10]: 15.8 nM; Activity [11]: inactive; Activity [12]: Active; Activity [13]: Active |
| O=C(CNCc1ccccc1F)Nc1ccc2nc3n(c(=O)c2c1)CCC3 | 108 nM | 528 nM |  |
| CCCCCCCCNCC(=O)Nc1ccc2nc3n(c(=O)c2c1)CCC3 | 45.7 nM | 10.6 nM |  |
| C#CCNCC(=O)Nc1ccc2nc3n(c(=O)c2c1)CCC3 | 12.4 nM | 46.4 nM |  |
| N#Cc1ccccc1CNCC(=O)Nc1ccc2nc3n(c(=O)c2c1)CCC3 | 29.9 nM | 16.8 nM |  |
| C=CCCNCC(=O)Nc1ccc2nc3n(c(=O)c2c1)CCC3 | 81.5 nM | 13.3 nM |  |
| O=C(CNCCCc1ccccc1)Nc1ccc2nc3n(c(=O)c2c1)CCC3 | 20.7 nM | 4.09 nM |  |
| CCCCCCCCCCCCNCC(=O)Nc1ccc2nc3n(c(=O)c2c1)CCC3 | 26.8 nM | 36.7 nM |  |
| CCCCCCCCCCCCCCCCNCC(=O)Nc1ccc2nc3n(c(=O)c2c1)CCC3 | 4.35 nM | 5.31 nM |  |
| C=CCNCC(=O)Nc1ccc2nc3n(c(=O)c2c1)CCC3 | 16.6 nM | 66.6 nM |  |
| Cc1ccccc1CNCC(=O)Nc1ccc2nc3n(c(=O)c2c1)CCC3 | 107 nM | 119 nM |  |
| B1 |  |  | Km [14]: 369 µM; Vmax [15]: 0.19 deltaA/min; Km [16]: 434 µM; Vmax [17]: 0.152 deltaA/min; Vmax [18]: 0.212 deltaA/min; Km [19]: 329 µM |
